The results in this text go back to article PMC4621751 (The Journal of General Physiology, 2015).

Assay [1] addresses T1, human Elk1 (HsElk1, Kv12.1, KCNH8) (Homo sapiens, UniProt Q96L42).
T1 sequence (Q96L42 1-1107): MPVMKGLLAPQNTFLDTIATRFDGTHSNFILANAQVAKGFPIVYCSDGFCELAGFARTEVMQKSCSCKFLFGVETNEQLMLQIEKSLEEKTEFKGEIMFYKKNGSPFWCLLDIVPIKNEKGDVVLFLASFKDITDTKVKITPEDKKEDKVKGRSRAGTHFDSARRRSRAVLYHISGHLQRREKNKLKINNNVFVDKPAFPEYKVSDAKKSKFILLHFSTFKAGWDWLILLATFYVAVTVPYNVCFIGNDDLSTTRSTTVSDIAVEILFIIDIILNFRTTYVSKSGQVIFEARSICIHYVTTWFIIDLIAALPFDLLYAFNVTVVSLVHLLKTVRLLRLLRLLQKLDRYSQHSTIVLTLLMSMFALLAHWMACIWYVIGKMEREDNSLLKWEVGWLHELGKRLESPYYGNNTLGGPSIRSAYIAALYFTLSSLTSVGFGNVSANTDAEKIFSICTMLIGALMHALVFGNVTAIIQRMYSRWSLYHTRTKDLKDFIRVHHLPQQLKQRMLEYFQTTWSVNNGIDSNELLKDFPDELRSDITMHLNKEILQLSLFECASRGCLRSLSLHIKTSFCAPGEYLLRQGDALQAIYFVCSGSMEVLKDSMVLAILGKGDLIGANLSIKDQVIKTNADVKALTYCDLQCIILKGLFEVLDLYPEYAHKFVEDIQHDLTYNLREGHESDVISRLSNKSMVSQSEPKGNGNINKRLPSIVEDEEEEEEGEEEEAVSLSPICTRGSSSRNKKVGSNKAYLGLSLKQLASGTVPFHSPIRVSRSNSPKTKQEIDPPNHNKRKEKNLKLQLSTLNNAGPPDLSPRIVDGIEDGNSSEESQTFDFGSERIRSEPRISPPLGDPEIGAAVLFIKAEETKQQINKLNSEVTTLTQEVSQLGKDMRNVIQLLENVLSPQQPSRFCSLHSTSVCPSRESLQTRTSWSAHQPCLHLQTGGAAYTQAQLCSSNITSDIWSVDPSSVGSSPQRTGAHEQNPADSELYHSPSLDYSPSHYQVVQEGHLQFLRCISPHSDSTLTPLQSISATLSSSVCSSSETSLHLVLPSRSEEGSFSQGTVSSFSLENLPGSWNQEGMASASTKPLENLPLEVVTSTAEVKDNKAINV
The experiment in a line: inside-out patch clamp, Hill fit of activation time constant. In kind it is cell-based. (In patch-clamp work, channel activity is measured electrically.)

Assay [2] addresses T1, human Elk1 (HsElk1, Kv12.1, KCNH8). The experiment in a line: inside-out patch clamp, activation time constant. In kind it is biochemical. To be noted: -20 mV, intracellular application, excised patch, pH 7.2.

A word on the EC50: it is the concentration that produces a half-maximal response. Turning to `CCCCCCCC(=O)OC[C@H](COP(=O)(O)O[C@@H]1[C@H](O)[C@H](O)[C@@H](OP(=O)(O)O)[C@H](OP(=O)(O)O)[C@H]1O)OC(=O)CCCCCCC` [diC8-PIP2], in assay [1], the EC50 is 12.7 ± 2.2 µM.
Consider `CCCCCCCC(=O)OC[C@H](COP(=O)(O)O[C@H]1[C@H](O)[C@@H](OP(=O)(O)O)[C@H](OP(=O)(O)O)[C@@H](OP(=O)(O)O)[C@H]1O)OC(=O)CCCCCCC` [diC8-PIP3], for which, in assay [2], the “fold change of τact at 10 μM” value is given as “PIP3 slowed activation significantly more than PIP2”.
